From patent US11478467B2 (priority 2017, dated 2022)
Where a name gives a salt, the structure may show the parent alone. Read-outs that look alike come from different tables or passages of the source.

What was measured:
[1] = tested on: MK-801-induced hyperactivity; test: MK-801-induced hyperactivity in rats; format: in vivo, rat
Description: To confirm the ability of M1 enantiomers to induce effects that are relevant to CNS diseases and that are known for 5-HT2A receptor […], separate groups of female Wistar rats (n=6-9), housed 4-5 per cage under standard colony room conditions with free access to food and water, were pretreated intraperitoneally with varying doses of one of the two M1 enantiomers (0, 3 or 10 mg/kg) followed 15 minutes later by 0.1 mg/kg of MK801 or its vehicle and immediately thereafter placed into computer-controlled motor activity recording chambers (25×35.5×34 cm, L×W×H; transparent Plexiglas walls and a non-transparent plastic floor; enclosed within sound-attenuating ventilated cubicles) for 60 minutes, during which infrared photocell interruptions (5 cm and 14 cm off the floor) were recorded as a measure of motor activity. MK-801 is a phencyclidine-like NMDA receptor channel blocked commonly used in psychopharmacology research on novel therapies including novel antipsychotics.

CYP2D6 [2] = target: T1, CYP2D6 (Homo sapiens (Human), UniProt P10635); settings: DEX O-demethylation; read-out: estimated mean IC50; cited from earlier work
CYP2D6 [3] = target: T1, CYP2D6; test: Dextromethorphan O-demethylase activity in human liver microsomes; format: biochemical; settings: CYP 2D6 activity; pooled human liver microsomes 0.25 mg/ml; read-out: IC50
Description: Dextromethorphan O-demethylase activity was determined in human liver microsomes. […] The incubation mixtures contained pooled human liver microsomes (final concentrations: 0.25 mg/ml), dextromethorphan, and a NADPH-generating system (1.3 mM NADP+, 3.3 mM glucose 6-phosphate, 3.3 mM MgCl2, and 0.4 U/ml glucose-6-phosphate dehydrogenase). […] All incubations were performed in triplicate, and mean values were used for analysis. […] Both sarpogrelate enantiomers inhibited CYP2D6-mediated dextromethorphan O-demethylation (Table 4).

5-HT2A receptors = 5-HT2A receptors (Homo sapiens (Human), UniProt P28223); test: 5-HT2A receptor antagonist radioligand binding ([3H]ketanserin); settings: for Ki / pKi: Ki calculated using the Cheng Prusoff equation; for IC50: inhibition of [3H]ketanserin binding, HEK-293 cells expressing human recombinant 5HT2A receptor
Description: HEK-293 cells expressing human recombinant 5HT2A receptor were used in the antagonist radioligand binding studies. […] The inhibition constants (Ki) were calculated using the Cheng Prusoff equation. Both sarpogrelate enantiomers were potent inhibitors of [3H]ketanserin binding (Table 1). M1 enantiomers also potently bind to 5HT2A receptors with the Ki values that are approximately one order of magnitude higher than those of sarpogrelate enantiomers (Table 1). There are no meaningful differences between enantiomers in terms of 5-HT2A receptor binding for sarpogrelate or its main metabolite.
5HT2a ASSAY: Evaluation of the affinity of compounds for the human 5-HT2A receptor in transfected HEK-293 cells determined in a radioligand binding assay. Cell membrane homogenates (30-50 μg protein) were incubated 15 min at 37° C. with 0.5 nM [3H]ketanserin in the absence or presence of the test compound in a buffer containing 50 mM Tris-HCl (pH 7.4). Nonspecific binding was determined in the presence of 1 μM ketanserin. Following incubation, the samples were filtered rapidly under vacuum through glass fiber filters presoaked with 0.3% PEI and rinsed several times with ice-cold 50 mM Tris-HCl using a 96-sample cell harvester. The filters were dried then counted for radioactivity in a scintillation counter using a scintillation cocktail (WO2005013952A1, EP1500391A1[ab1], incorporated in its entirety by reference).

[4] = target: peripheral 5-HT2A receptors (Rattus norvegicus (Rat), UniProt P14842); settings: cited from earlier work; for 5-methoxytryptamine-induced hyperglycemia: pretreatment
[5] = tested on: NPI scores and sleep in patients with AD; settings: human, in vivo; cited from earlier work
[6] = tested on: behavioral disturbances in Alzheimer's disease; settings: human, in vivo; cited from earlier work
[7] = Inhibition of dextromethorphan metabolism in vivo (dextromethorphan plasma levels after sarpogrelate); set-up: species or system rat; settings: for Dextromethorphan AUC: dextromethorphan 50 mg/kg oral gavage, AUC 0-6 h, rat plasma
Description: In a separate set of studies, ability of sarpogrelate to inhibit dextromethorphan metabolism in vivo was studied in rats. Adult male Sprague Dawley rats (RjHan:SD) purchased from Janvier Labs (France) were housed in a climate-controlled room under a 12 h light/12 h dark cycle with ad libitum access to food and water. Two-three days prior to blood sampling, rats were provided with a catheter in the jugular vein and, thereafter, rats treated once with Carprofen (5 mg/kg) directly after surgery and catheters were rinsed daily with Heparin (500 IE/ml) (20 μl/rat/day). On the day of the experiment, dextromethorphan (50 mg/kg) was administered by oral gavage, immediately followed by intravenous bolus injection of sarpogrelate (1, 3 or 10 mg/kg; racemate or one of the enantiomers) or vehicle via vascular access port at t=0 h. Blood samples were collected at four time points until 6 hours post dextromethorphan administration. Sample size was 80 μl Li-heparin whole blood/time point, i.e. 40 μl Li-heparin plasma/time point. Whole blood samples were stored on ice until centrifugation (10 min at 3000 g, 4° C.). Plasma was prepared within 45 min after collection, frozen at −20° C. and stored at this temperature until processed for LC-MS analysis.

[8] = tested on: PCP-induced hyperactivity; test: Phencyclidine-induced hyperactivity in rats (sarpogrelate and dextromethorphan); format: in vivo, rat; settings: in the presence of dextromethorphan; racemate 3 mg/kg, (−) sarpogrelate 1 or 3 mg/kg i.p.; PCP 5 mg/kg s.c.; 60-120 min
[9] = tested on: locomotor activity, stereotypy, ataxia; settings: DO 15-120 mg/kg, DEX 15-120 mg/kg, PCP 1.25-20 mg/kg; rats; cited from earlier work
[10] = cited from earlier work
CYP2D6 [11] = target: T1, CYP2D6; settings: dextromethorphan as substrate; cited from earlier work
[12] = sarpogrelate dose 1 mg/kg i.v. bolus
[13] = sarpogrelate dose 3 mg/kg i.v. bolus
[14] = sarpogrelate dose 10 mg/kg i.v. bolus

Chain of 5-HT2A receptors (P28223 whole entry): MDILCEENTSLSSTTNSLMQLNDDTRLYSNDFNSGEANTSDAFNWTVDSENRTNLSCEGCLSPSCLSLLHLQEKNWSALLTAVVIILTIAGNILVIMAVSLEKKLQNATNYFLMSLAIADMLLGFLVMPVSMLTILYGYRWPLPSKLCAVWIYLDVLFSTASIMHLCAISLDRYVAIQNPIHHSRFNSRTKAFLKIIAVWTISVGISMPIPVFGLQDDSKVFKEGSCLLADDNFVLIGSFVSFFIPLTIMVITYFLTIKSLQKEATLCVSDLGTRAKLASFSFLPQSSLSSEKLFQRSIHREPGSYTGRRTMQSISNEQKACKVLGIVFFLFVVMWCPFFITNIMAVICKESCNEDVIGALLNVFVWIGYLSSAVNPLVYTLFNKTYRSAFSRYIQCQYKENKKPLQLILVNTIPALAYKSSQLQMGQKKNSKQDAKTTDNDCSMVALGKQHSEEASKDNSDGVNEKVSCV
T1 sequence (P10635 whole entry): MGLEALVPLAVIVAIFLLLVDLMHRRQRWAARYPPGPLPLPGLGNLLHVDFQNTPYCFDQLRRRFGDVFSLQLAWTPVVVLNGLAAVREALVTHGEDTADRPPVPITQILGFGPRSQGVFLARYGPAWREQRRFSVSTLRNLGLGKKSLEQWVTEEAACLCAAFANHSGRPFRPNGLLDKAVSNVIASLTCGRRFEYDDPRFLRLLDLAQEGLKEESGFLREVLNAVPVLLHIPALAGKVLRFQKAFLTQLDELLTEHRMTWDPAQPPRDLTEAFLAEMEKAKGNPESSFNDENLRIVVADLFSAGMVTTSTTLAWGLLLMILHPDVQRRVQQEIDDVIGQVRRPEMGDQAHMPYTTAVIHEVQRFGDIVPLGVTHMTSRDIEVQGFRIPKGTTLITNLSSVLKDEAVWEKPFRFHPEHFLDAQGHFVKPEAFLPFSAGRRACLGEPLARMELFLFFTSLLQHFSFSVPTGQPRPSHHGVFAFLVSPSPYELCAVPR

Question: Which “hyperactivity induced by MK-801 (motor activity, 60 min)” value ([1]; 3 mg/kg) does the source give for COc1cccc([C@H](O)C2CCN(CCc3ccc(F)cc3)CC2)c1OC [M-100,907] here?
Answer: reduced hyperactivity induced by MK-801

Question: Which IC50 (CYP2D6 [2]) does the source give for CN1CCN(CC/C=C2/c3ccccc3Sc3ccc(S(=O)(=O)N(C)C)cc32)CC1 [Cisthiothixene] here?
Answer: 137000 nM

Question: Which IC50 (CYP2D6 [3]) does the source give for COc1cccc(CCc2ccccc2OC[C@H](O)CN(C)C)c1 [Compound 148, (R)-1-(dimethylamino)-3-(2-(3-methoxyphenethyl)phenoxy) propan-2-ol] here?
Answer: 96 nM

Question: And the “hyperactivity induced by MK-801 (motor activity, 60 min)” value ([1]; M1 enantiomer 3 or 10 mg/kg i.p., 15 min before 0.1 mg/kg MK801, female Wistar rats)?
Answer: reduced hyperactivity induced by MK-801

Question: What about the Ki (5-HT2A receptors) of the same compound?
Answer: 0.631 nM

Question: And the IC50 (5-HT2A receptors)?
Answer: 1.3 nM

Question: What does the source list for COc1cccc(CCc2ccccc2OC[C@@H](O)CN(C)C)c1 [Compound 147, (S)-1-(dimethylamino)-3-(2-(3-methoxyphenethyl)phenoxy)propan-2-ol]?
Answer: IC50 (CYP2D6 [3]): 38 nM; Ki (5-HT2A receptors): 0.794 nM; IC50 (5-HT2A receptors): 1.2 nM

Question: With COc1ccc2[nH]cc(CCN)c2c1 [5-methoxytryptamine] as the compound, how does the blood glucose ([4]; agonist given alone) read?
Answer: induced hyperglycemia

Question: For CC12CC3CC(C)(C1)CC(N)(C3)C2 [memantine, 3,5-dimethyladamantan-1-amine], which fragmented sleep [5] is on record?
Answer: effective in reducing fragmented sleep

Question: What about the “scores of NPI item for irritability/lability” value [5] of the same compound?
Answer: significantly decreases the scores of NPI item for irritability/lability

Question: What about the “scores of NPI subscale for anxiety” value [5] of the same compound?
Answer: significantly decreases in the scores of NPI subscale for anxiety

Question: What about the agitation/aggression [6] of the same compound?
Answer: significant improvement in agitation/aggression

Question: What about the delusions [6] of the same compound?
Answer: significant improvement in delusions

Question: What about the disinhibition [6] of the same compound?
Answer: significant improvement in disinhibition

Question: And the irritability/lability [6]?
Answer: superior to control in irritability/lability

Question: And the “nighttime disturbance/diurnal rhythm disturbances” value [6]?
Answer: significant improvement in nighttime disturbance/diurnal rhythm disturbances

Question: Which IC50 (CYP2D6 [3]) does the source give for COc1cccc(CCc2ccccc2OC[C@H](CN(C)C)OC(=O)CCC(=O)O)c1 [Compound 51] here?
Answer: 580 nM

Question: And the “Fold increase (relative to vehicle) of dextromethorphan AUC” value (“Fold increase (relative to vehicle)” below) ([7]; sarpogrelate dose 1 mg/kg)?
Answer: 1.4 fold

Question: What about the “Dextromethorphan AUC” value [7, 12] of the same compound?
Answer: 827.0 ng·h/mL

Question: And the “Fold increase (relative to vehicle)” value ([7]; sarpogrelate dose 3 mg/kg)?
Answer: 3.3 fold

Question: And the “Dextromethorphan AUC” value [7, 13]?
Answer: 2021.5 ng·h/mL

Question: What about the “Fold increase (relative to vehicle)” value ([7]; sarpogrelate dose 10 mg/kg) of the same compound?
Answer: 6.9 fold

Question: And the “Dextromethorphan AUC” value [7, 14]?
Answer: 4154.3 ng·h/mL

Question: And the pKi (5-HT2A receptors)?
Answer: 8.4

Question: And the IC50 (5-HT2A receptors)?
Answer: 7.5 nM

Question: Which results are given for COc1cccc(CCc2ccccc2OCC(CN(C)C)OC(=O)CCC(=O)O)c1 (stereo not shown) [Compound 52]?
Answer: IC50 (CYP2D6 [3]): 1300 nM; Fold increase (relative to vehicle) of dextromethorphan AUC ([7]; sarpogrelate dose 1 mg/kg): 1.5 fold; Dextromethorphan AUC [7, 12]: 921.4 ng·h/mL; Fold increase (relative to vehicle) of dextromethorphan AUC ([7]; sarpogrelate dose 3 mg/kg): 2.7 fold; Dextromethorphan AUC [7, 13]: 1649.5 ng·h/mL; Fold increase (relative to vehicle) of dextromethorphan AUC ([7]; sarpogrelate dose 10 mg/kg): 5.3 fold; Dextromethorphan AUC [7, 14]: 3195.9 ng·h/mL; pKi (5-HT2A receptors): 8.2; IC50 (5-HT2A receptors): 11 nM; motor hyperactivity in PCP-treated rats [8]: inhibited motor hyperactivity in PCP-treated rats

Question: Which “behavioral effects given alone (locomotor hyperactivity, stereotypy, ataxia)” value [9] does the source give for c1ccc(C2(N3CCCCC3)CCCCC2)cc1 [PCP, 1-(1-phenylcyclohexyl)piperidine] here?
Answer: dose-dependent locomotor hyperactivity, stereotypy and ataxia

Question: Which results are given for COc1cccc(CCc2ccccc2OCC(CN(C)C)OC(=O)CCC(=O)O)c1 (stereo not shown) [Compound 50 hydrochloride, Butanedioic acid, mono(2-(dimethylamino)-1-((2-(2-(3-methoxyphenyl)ethyl)phenoxy)methyl)ethyl) ester, hydrochloride]?
Answer: mortality ([10]; 5, 20, 80 and 320 mg/kg/day orally, 52 weeks, beagle dogs): No animal died or was sacrificed in extremis; Food consumption ([10]; dog, in vivo, po): inhibited in females receiving 80 mg/kg/day and over; biochemical examination ([10]; dog, in vivo, po): an increase in potassium in males receiving 80 mg/kg/day and over, and females receiving 320 mg/kg/day; electrocardiographic or ophthalmoscopic examination ([10]; dog, in vivo, po): no treatment related change; general conditions: emesis ([10]; dog, in vivo, po): emesis was noted in males and females receiving 320 mg/kg/day and males receiving 80 mg/kg/day; general conditions: salivation ([10]; dog, in vivo, po): salivation in females receiving 320 mg/kg/day; hematological examination ([10]; dog, in vivo, po): an increase in a platelet count in males receiving 320 mg/kg/day; histopathological examination of the kidney ([10]; dog, in vivo, po): fatty degeneration was revealed in the cortico-medullary border zone of the kidney in males receiving 320 mg/kg/day; urinalysis ([10]; dog, in vivo, po): an increase in protein was revealed in females receiving 320 mg/kg/day; water consumption ([10]; dog, in vivo, po): inhibition of water consumption

Question: With COc1cccc(OC(C)CNC(=N)Cc2cccc(C)c2)c1 (stereo not shown) [xylamidine] as the compound, how does the 5-methoxytryptamine-induced hyperglycemia [4] read?
Answer: prevented

Question: For Cc1nc2n(c(=O)c1CCN1CCC(c3noc4cc(F)ccc34)CC1)CCCC2 [risperidone], which IC50 (CYP2D6 [2]) is on record?
Answer: 39100 nM

Question: For C=C[C@H]1C[N@@]2CC[C@H]1C[C@@H]2[C@@H](O)c1ccnc2ccc(OC)cc12 [quinidine], which “inhibition type (Dixon plots)” value (CYP2D6 [11]) is on record?
Answer: fit well to all competitive inhibition types

Question: With O=C(c1ccc(F)cc1)C1CCN(CCn2c(=O)[nH]c3ccccc3c2=O)CC1 [ketanserin] as the compound, how does the 5-methoxytryptamine-induced hyperglycemia [4] read?
Answer: prevented
